According to article PMC12263422, “Cryo-EM structure of the human THIK-1 K2P K^+ channel reveals a lower Y gate regulated by lipids and anesthetics” (Nature Structural & Molecular Biology, 2025):
Values joined by “and” are separate entries in the source; they are usually repeats but may differ in a detail not shown here. Equal entries are not always repeated. Each block holds one molecule with its values, some of them ahead of it.

Biological target: T1, THIK-1 T237A (Homo sapiens, UniProt Q9HB14, T237A)
T1 construct: expressed in transfected cells; host or cells: Xenopus oocytes (mRNA injection)
T1 sequence (Q9HB14 1-408 T237A): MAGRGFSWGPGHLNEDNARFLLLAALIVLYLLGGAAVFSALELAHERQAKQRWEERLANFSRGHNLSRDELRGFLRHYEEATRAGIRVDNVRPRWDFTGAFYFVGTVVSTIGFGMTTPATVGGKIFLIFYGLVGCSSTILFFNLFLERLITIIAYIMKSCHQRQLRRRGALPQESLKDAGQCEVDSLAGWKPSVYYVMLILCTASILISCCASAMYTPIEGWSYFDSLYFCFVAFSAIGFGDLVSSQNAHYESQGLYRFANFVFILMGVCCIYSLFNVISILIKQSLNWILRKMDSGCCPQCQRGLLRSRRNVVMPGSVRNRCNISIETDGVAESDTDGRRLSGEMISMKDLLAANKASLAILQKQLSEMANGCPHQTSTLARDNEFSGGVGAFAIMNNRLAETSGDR
Experiment: Inside-out excised patch recordings, oocytes, THIK-1 T237A mutant
Assay type: cell-based
Description: Human K2P13.1 THIK-1 (GenBank accession number: NM_022054) and human K2P12.1 THIK-2 (NM_022055.1) were used in this study. For functional expression studies, the respective K^+ channel subtype coding sequences were subcloned into the oocyte expression vector pSGEM or the dual-purpose expression vector pFAW[41] and verified by sequencing. All mutant channels were obtained by site-directed mutagenesis and verified by sequencing. To increase surface expression and macroscopic currents, measurements of THIK-2 channels used a mutated ER retention motif, (R11A R12A R14A R15A R16A; THIK-2*)[20]. Vector DNA was linearized with NheI or MluI, and mRNA was synthesized in vitro using the SP6 or T7 AmpliCap Max High Yield Message Maker Kit (Cellscript, USA) or HiScribe T7 ARCA mRNA Kit (New England Biolabs).
Two-electrode voltage–clamp (TEVC) studies were performed in Xenopus oocytes. All animal use conformed to the Guide for the Care and Use of Laboratory Animals (NIH Publication 85–23), and all experiments using Xenopus toads were approved by the local ethics panels. Oocytes were stored at 17 °C in ND96 recording solution composed of (in mM): 96 NaCl, 2 KCl, 1.8 CaCl2, 1 MgCl2, 5 HEPES (pH 7.5 adjusted with NaOH and HCl), supplemented with Na-pyruvate (275 mg L^–1), theophylline (90 mg L^–1) and gentamicin (50 mg L^–1). Oocytes were injected with 1 ng mRNA for WT or mutant channels, and were incubated for 24–48 h at 17 °C. Two-electrode voltage clamp recordings were then performed as previously described[42],[43]. For macroscopic patch–clamp measurements, oocytes were obtained as described above incubated at 17 °C in a solution containing (mM): 54 NaCl, 30 KCl, 2.4 NaHCO3, 0.82 MgSO4 ×7 H2O, 0.41 CaCl2, 0.33 Ca(NO3)2 ×4 H2O and 7.5 TRIS (pH 7.4 adjusted with NaOH and HCl) for 1–4 days before use. Excised patch recordings in inside-out configuration conditions were performed at room temperature. Patch pipettes were made from thick-walled borosilicate glass GB 200TF-8P (Science Products), had resistances of 0.2–0.5 MΩ (tip diameter, 10–25 µm) and filled with a pipette solution (in mM): 120 KCl, 10 HEPES and 3.6 CaCl2 (pH 7.4 adjusted with KOH and HCl). Intracellular bath solutions and compounds were applied to the cytoplasmic side of excised patches for the various K^+ channels through a gravity flow multi-barrel pipette system. The intracellular solution had the following composition (in mM): 120 KCl, 10 HEPES, 2 EGTA and 1 pyrophosphate (pH adjusted with KOH and HCl). Currents were recorded with an EPC10 amplifier (HEKA Electronics) and sampled at 10 kHz or higher, with filtering set to 3 kHz (–3 dB) or higher, as appropriate for sampling rate. For measurements of GPCR activation, whole-cell currents were recorded for THIK-1 in transiently transfected HEK-293 cells. Cells were stimulated by a ramp protocol between −100 and +60 mV (holding potential, −80 mV). The pipette solution was composed of (in mM): 140 KCl, 2 MgCl2, 1 CaCl2, 2.5 EGTA and 10 HEPES (pH 7.3 adjusted with KOH and HCl). The extracellular bath solution had the following composition (in mM): 135 NaCl, 5 KCl, 2 MgCl2, 2 CaCl2, 10 glucose and 10 HEPES pH (pH 7.3 adjusted with NaOH and HCl). Oxotremorine M (Oxo-M) was added to extracellular bath solution to obtain the final concentration. Single-channel currents were recorded with an Axopatch 200B amplifier through a Digidata 1440A digitizer (Molecular Devices). Data were filtered at 2 kHz and recorded at a 200-kHz sampling rate with the program Clampex (Molecular Devices). Pipette solution and bath solution for cell-attached recordings contained (in mM): 140 KCl, 2 MgCl2, 1 CaCl2 and 10 HEPES (pH 7.4 adjusted with KOH and HCl). For inside-out recordings, the bath solution contained (in mM): 140 KCl, 2 MgCl2, 1 CaCl2 and 10 HEPES (pH 7.2 adjusted with KOH and HCl). All experiments were conducted at room temperature. […]

inhibition at 152 µM (halothane 0.152 mM, THIK-1 T237A): 2.14% | inhibition at 304 µM (halothane 0.304 mM, THIK-1 T237A): 5.74% | inhibition at 1520 µM (halothane 1.52 mM, THIK-1 T237A): 14% | inhibition at 3040 µM (halothane 3.04 mM, THIK-1 T237A): 21.8% | inhibition at 15200 µM (halothane 15.2 mM, THIK-1 T237A): 61.5%
SMILES: FC(F)(F)C(Cl)Br (stereo not drawn) [halothane]
Inhibition (%) (3.0 mM halothane, T237A, individual recordings): 33.289% and 24.219% and 32.586% and 20.723% and 17.184% and 21.968% and 14.425% and 17.317% and 20.857% and 12.818% and 13.953% and 26.198% and 19.691% and 2.253% and 19.772% and 18.717% and 25.052% and 20.656% and 33.770% and 18.734% and 25.692% and 28.421% and 33.333%

inhibition at 242 µM (isoflurane 0.242 mM, THIK-1 T237A): 3.32% | inhibition at 485 µM (isoflurane 0.485 mM, THIK-1 T237A): 6.3% | inhibition at 2420 µM (isoflurane 2.42 mM, THIK-1 T237A): 10.5% | inhibition at 4850 µM (isoflurane 4.85 mM, THIK-1 T237A): 14.9% | inhibition at 24200 µM (isoflurane 24.2 mM, THIK-1 T237A): 41.2%
SMILES: FC(F)OC(Cl)C(F)(F)F (stereo not drawn) [Isoflurane, isoflurane]
Inhibition (%) (4.9 mM Isoflurane, T237A, individual recordings): 17.406% and 8.395% and 11.371% and 16.439% and 18.927% and 20.492% and 11.299%

SMILES: CCCCC[N+](CCCCC)(CCCCC)CCCCC [TPenA, tetrapentylammonium]
IC50 (TPenA IC50, T237A mutant): 751 ± 69 µM | IC50 (TPenA IC50, THIK-1 T237A, individual recordings): 1130 µM and 808 µM and 597 µM and 535 µM and 580 µM and 782 µM and 1030 µM and 536 µM and 917 µM and 590 µM | IC50 (TPenA IC50, THIK-1 T237A, mean): 751 µM

inhibition at 240 µM (0.24 mM Sevoflurane, T237A, mean): 10% | inhibition at 23 µM (THIK-1 T237A, 0.023 mM sevoflurane): 2.46% | inhibition at 47 µM (THIK-1 T237A, 0.047 mM sevoflurane): 5.91% | inhibition at 468 µM (THIK-1 T237A, 0.468 mM sevoflurane): 21.7% | inhibition at 2340 µM (THIK-1 T237A, 2.34 mM sevoflurane): 65.6%
SMILES: FCOC(C(F)(F)F)C(F)(F)F [Sevoflurane, sevoflurane]
Inhibition (%) (0.24 mM Sevoflurane, T237A, individual recordings): 3.46% and 13.30% and 10.43% and 14.31% and 9.40% and 9.31%
